Where two headings read alike, the source gives them in different places.
Assays:
Aβ42 = test: γ-secretase-modulating activity, Method 2: Aβ42 Alphalisa in supernatant of SKNBE2 cells carrying APP 695-wild type (Table 3b); format: cell-based; conditions: overnight
Method in brief: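 SKNBE2 cells expressing wild-type APP695 were incubated overnight at 37° C. with test compound. Secreted Aβ42 was then measured by AlphaLISA, using a C-terminal Aβ42 antibody paired with an N-terminal Aβ antibody. IC50 came from a 4-parameter fit of percent of compound-free control.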

Aβtotal = test: γ-secretase-modulating activity, Method 2: Aβtotal Alphalisa in supernatant of SKNBE2 cells carrying APP 695-wild type (Table 3b); format: cell-based; conditions: overnight, read-out: IC50 Aβtot
Method in brief: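 SKNBE2 cells expressing wild-type APP 695 were incubated overnight at 37 °C, 5% CO2 with test compound at a range of concentrations. Aβtotal in supernatant was measured by AlphaLISA sandwich (N-terminal JRF/AβN/25 acceptor, biotinylated mid-region 4G8 donor); IC50 from 4-parameter fit of percent control versus log concentration.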

SMILES	IC50 (Aβ42) [nM]	IC50 (Aβtotal) [nM]	IC50 (Aβ42; Homo sapiens) [nM]	IC50 (Aβtotal; Homo sapiens) [nM]
COc1cc(-c2nc3n(n2)CCOC3c2ccccc2C(F)(F)F)ccc1-n1cnc(C)c1 (stereo not shown) [Compound 316]	661	> 10000		
COc1cc(-c2nc(Nc3cccc4c3OC(F)(F)O4)n(C)n2)ccc1-n1cnc(C)c1 [Compound 317]	34	7940		
COc1c(-n2cnc(C)c2)ccc(-c2nc(Nc3ccccc3C)n(C)n2)c1F [Compound 318]	240	> 10000		
Cc1cn(-c2ccc(-c3nc(Nc4cc(C(F)(F)F)ccc4F)n(C)n3)nc2C)cn1 [Compound 319]	490	> 10000		
Cc1cn(-c2ccc(-c3nc(Nc4ccccc4C(F)(F)F)n(C)n3)cc2C#N)cn1 [Compound 321]	182	> 15000		
COc1cc(-c2nc(Nc3c(C)cccc3F)n(C)n2)ccc1-n1cnc(C)c1 [Compound 323]	51	> 10000		
COc1cc(-c2nc(Nc3ccccc3C(C)=O)n(C)n2)ccc1-n1cnc(C)c1 [Compound 324]	1320	> 10000		
COc1cc(-c2nc(N3CCOc4ccccc43)n(C)n2)ccc1-n1cnc(C)c1 [Compound 325]	182	> 10000		
COc1cc(-c2nc(-c3ccc4ccccc4n3)n(C)n2)ccc1-n1cnc(C)c1 [Compound 326]	3090	> 10000		
COc1cc(-c2nc(N3CCCOc4ccccc43)n(C)n2)ccc1-n1cnc(C)c1 [Compound 327]	1180	> 10000		
CCOc1cc(C)c(Nc2nc(-c3ccc(-n4cnc(C)c4)c(OC)c3)nn2C)cc1C(C)C [Compound 328]	7	145		
COc1cc(-c2nc(C(=O)Nc3cccc(C(F)(F)F)c3)n(C)n2)ccc1-n1cnc(C)c1 [Compound 329]	3090	851		
COCc1ccc(F)c(Nc2nc(-c3ccc(-n4cnc(C)c4)c(OC)c3)nn2C)c1 [Compound 331]	56	> 10000		
COc1cc(-c2nc3n(n2)CCC[C@@H]3c2ccc(F)cc2C)ccc1-n1cnc(C)c1 [Compound 332]	234	> 10000		
COc1nc(-c2nc3n(n2)CCOC3c2cccc(F)c2C)ccc1-n1cnc(C)c1 (stereo not shown) [Compound 347]	126	> 10000		

Further lines, results first:

IC50 (Aβ42) [nM]	IC50 (Aβtotal) [nM]	IC50 (Aβ42; Homo sapiens) [nM]	IC50 (Aβtotal; Homo sapiens) [nM]	SMILES
26	> 10000			COc1cc(-c2nc3n(n2)CCC[C@H]3c2ccc(F)cc2C)ccc1-n1cnc(C)c1 [Compound 333]
		263	> 10000	COc1cc(-c2nc3n(n2)CCCC3(CO)c2ccc(F)cc2C)ccc1-n1cnc(C)c1 (stereo not shown) [Compound 334]
200	> 10000			COc1cc(-c2nc(Nc3ccccc3)n(C)n2)ccc1-n1cnc(C)c1 [Compound 335]
129	> 10000			COc1cc(-c2nc3n(n2)CCCC3c2ccccc2C(F)(F)F)ccc1-n1cnc(C)c1 (stereo not shown) [Compound 336]
155	> 10000			COc1cc(-c2nc3n(n2)CCC[C@@H]3c2cc(C(F)(F)F)ccc2C)ccc1-n1cnc(C)c1 [Compound 339]
12	7760			COc1cc(-c2nc3n(n2)CCC[C@H]3c2cc(C(F)(F)F)ccc2C)ccc1-n1cnc(C)c1 [Compound 341]
162	> 10000			COc1nc(-c2nc3n(n2)CCC[C@@H]3c2cc(C(F)(F)F)ccc2C)ccc1-n1cnc(C)c1 [Compound 342]
52	> 10000			COc1cc(-c2nc3n(n2)CCCC3c2ccccc2C)ccc1-n1cnc(C)c1 (stereo not shown) [Compound 344]
107	> 10000			COc1cc(-c2nc3n(n2)CCOC3c2cccc(F)c2C)ccc1-n1cnc(C)c1 (stereo not shown) [Compound 345]
95	> 10000			COc1cc(-c2nc3n(n2)CCOC3c2ccccc2OC(F)(F)F)ccc1-n1cnc(C)c1 (stereo not shown) [Compound 346]
79	> 10000			COc1nc(-c2nc3n(n2)CCOC3c2ccccc2OC(F)(F)F)ccc1-n1cnc(C)c1 (stereo not shown) [Compound 348]
